Measured values from patent publication US9499493B2, “2,4-pyrimidinediamine compounds and their uses” (Rigel Pharmaceuticals, Inc., priority 2002, dated 2016).
Structures can show the parent of a compound that is named as a salt.

Key:
[1] = test system: cultured human mast cells (CHMC); assay: CHMC low cell density IgE activation: tryptase assay; format: cell-based; details: anti-IgE
Method in brief: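 Cultured human mast cells (1000-1500 cells/well, donor-dependent) equilibrated 1 hr at 37° C, then stimulated with anti-IgE for 30 min at 37° C. Tryptase released into the supernatant is measured with a fluorogenic tryptase substrate after 30 min at room temperature.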

[2] = test system: cultured human mast cells (CHMC); assay: CHMC low cell density ionomycin activation: tryptase assay; format: cell-based

Compound | IC50 [1] | IC50 [2] | IC50 ([1]; Dihydrochloride Salt)
CNC(=O)COc1cccc(Nc2ncc(F)c(Nc3ccc4c(c3)OC(F)(F)C(F)(F)O4)n2)c1 [R926732, 5-Fluoro-N4-[3,4-(1,1,2,2-tetrafluoroethylendioxy)phenyl]-N2-[3-(N-methylamino)carbonylmethyleneoxyphenyl]-2,4-pyrimidinediamine] | 0.444 µM | > 10 µM | 
CNC(=O)COc1cccc(Nc2ncc(F)c(Nc3ccc4c(c3)OCC(=O)N4C)n2)c1 [R909261] | 0.93 µM | > 10 µM | 
CCOC(=O)COc1cccc(Nc2ncc(F)c(Nc3ccc4c(c3)NCCO4)n2)c1 [R909242, N4-(1,4-Benzoxazin-6-yl)-N2-[3-ethoxyocarbonylmethyleneoxyphenyl]-5-fluoro-2,4-pyrimidinediamine] | 0.567 µM | > 10 µM | 
O=C(COc1cccc(Nc2ncc(F)c(Nc3ccc4c(c3)OCCO4)n2)c1)N1CCNCC1 [R926503, N4-(3,4-Ethylenedioxyphenyl)-5-fluoro-N2-[3-(N-piperazino)carbonylmethyleneoxyphenyl]-2,4-pyrimidinediamine] | 0.452 µM | > 10 µM | 
CC1Sc2ccc(Nc3ncc(F)c(Nc4cccc(O)c4)n3)cc2NC1=O (racemic) [R909263, (+/−)-5-Fluoro-N4-(3-hydroxyphenyl]-N2-(2-methyl-1,4-benzothiazin-3-on-6-yl)pyrimidinediamine] | 0.289 µM | > 10 µM | 
CC1(C)COC(COc2ccc(Nc3ncc(F)c(Nc4cccc(O)c4)n3)cc2)=N1 [R926702, 5-Fluoro-N4-(3-hydroxyphenyl)-N2-[4-[(4,4-dimethyl-3-oxazolin-2-yl)methyleneoxy]phenyl]-2,4-pyrimidinediamine] | 0.886 µM | > 10 µM | 
CC(C)(C)OC(=O)N1CCc2ccc(Nc3nc(Cl)ncc3F)cc2C1 [Compound R926911] | > 10 µM | > 10 µM | 
CC(C)NC(=O)COc1ccc(Nc2ncc(C#N)c(Nc3ccc(OCC(=O)NC(C)C)cc3)n2)cc1 [R925861, N2,N4-Bis[4-(N-isopropylamino)carbonylmethyleneoxyphenyl]-5-cyano-2,4-pyrimidinediamine] | > 10 µM | > 10 µM | 
O=C(COc1cccc(Nc2ncc(F)c(Nc3ccc4c(c3)OCCO4)n2)c1)NCCOC(=O)CCCCC1SCC2NC(=O)NC21 (stereo not drawn) [R926811, N4-(3,4-Ethylenedioxyphenyl)-5-fluoro-N2-[3-[N-2-(D)-(+)-biotinylethylamino]carbonylmethyleneoxyphenyl]-2,4-pyrimidinediamine] | 3.66 µM | > 10 µM | 
CCOC(=O)COc1ccc(Nc2nc(Nc3ccc(OCC(=O)OCC)cc3)c(N)c(C(=O)OCC)n2)cc1 [R926567, 5-Amino-N2,N4-bis(4-ethoxycarbonylmethyleneoxyphenyl)-6-ethoxycarbonyl-2,4-pyrimidinediamine] | 9.3 µM | > 10 µM | 
O=C(COc1ccc(Nc2nc(Nc3cccc(O)c3)ncc2Br)cc1)NCC1CC1 [R925842] | 7.3 µM | > 10 µM | 
CCOC(=O)COc1cccc(Nc2nc(Nc3cc(OC)cc(OC)c3)ncc2F)c1 [R926804, N2-(3,5-Dimethoxyphenyl)-N4-(3-ethoxycarbonylmethyleneoxyphenyl)-5-fluoro-2,4-pyrimidinediamine] | 1.58 µM | 7.11 µM | 
Oc1cccc(Nc2nc(Nc3cc(Br)cc(C(F)(F)F)c3)ncc2F)c1 [R926846, N2-(3-Bromo-5-trifluorophenyl)-5-fluoro-N4-(3-hydroxyphenyl)-2,4-pyrimidinediamine] | 0.86 µM | 6.26 µM | 
CNC(=O)COc1cccc(Nc2ncc(F)c(Nc3cc(C)ccc3Cl)n2)c1 [R926840, N4-(2-Chloro-5-methylphenyl)-5-fluoro-N2-[3-(N-methylamino)carbonylmethyleneoxyphenyl]-2,4-pyrimidinediamine] | 1.1 µM | > 10 µM | 
CNC(=O)c1cc2cccc(Nc3ncc(F)c(Nc4ccc5c(c4)OCCO5)n3)c2[nH]1 [R926815] | 1.18 µM | > 10 µM | 
Oc1cccc(Nc2nc(Nc3ccc4oc(CN5CCNCC5)cc4c3)ncc2F)c1 [R926769, 5-Fluoro-N4-(3-hydroxyphenyl)-N2-[2-(N-piperazinomethylene)benzofuran-5-yl]-2,4-pyrimidinediamine Dihydrochloride Salt] |  | > 10 µM | 1.07 µM
C=CCNC(=O)Nc1c(Nc2ccc(OCC(=O)OCC)cc2)nc(Nc2ccc(OCC(=O)OCC)cc2)nc1C(=O)OCC [R926585] | > 10 µM | > 10 µM | 
COc1cc(-c2ccccc2)c(C)cc1Nc1ncc(F)c(Nc2cc(C)c(-c3ccccc3)cc2OC)n1 [R926401, N2,N4-Bis[(2-methoxy-5-methyl-4-phenyl)phenyl]-5-fluoro-2,4-pyrimidinediamine] | > 10 µM | > 10 µM | 
5-Fluoro N4-(3-hydroxyphenyl)-N2-(5-methyl-4-oxazolyl-2-phenyl)-2,4-pyrimidinediamine [R926779] | > 10 µM | > 10 µM | 

Results, then the compound that gave them:

IC50 [1] | IC50 [2] | IC50 ([1]; Dihydrochloride Salt) | Compound
0.261 µM | > 10 µM |  | CSc1nc2ccc(Nc3ncc(F)c(Nc4ccc5c(c4)OCCO5)n3)cc2s1 [R950201, N4-(3,4-Ethylenedioxyphenyl)-5-fluoro-N2-[2-(methylthio)-1,3-benzothiaz-6-yl]-2,4-pyrimidinediamine]
2.2 µM | > 10 µM |  | CNCCNC(=O)CNc1cccc(Nc2ncc(F)c(Nc3ccc4c(c3)OCCO4)n2)c1 [R950196, N4-(3,4-Ethylenedioxyphenyl)-5-fluoro-N2-[3-(N-methylamino)ethyleneaminocarbonylmethyleneaminophenyl]-2,4-pyrimidinediamine]
0.505 µM | 9.32 µM |  | CCOC(=O)C(C)(C)c1ccc(Nc2ncc(F)c(Nc3cccc(O)c3)n2)cc1 [R935152, N2-[4-[(1-Ethoxycarbonyl-1-methyl)ethyl]phenyl]-5-fluoro-N4-(3-hydroxyphenyl)-2,4-pyrimidinediamine]
1.23 µM | > 10 µM |  | CNC(=O)C1Cc2cc(Nc3ncc(F)c(Nc4ccc(OCCO)nc4)n3)ccc2O1 (racemic) [R927039, (±)-N2-[2,3-Dihydro-(N-methylamino)carbonylbenzofuran-5-yl]-5-fluoro-N4-[2-(2-hydroxyethyleneoxy)pyridin-5-yl]-2,4-pyrimidinediamine]
0.557 µM | > 10 µM |  | OCC(O)COc1ccc(Nc2ncc(F)c(Nc3ccc4c(c3)OCCO4)n2)cc1 (stereo not shown) [R935179, N2-[4-(2,3-Dihydroxypropoxy)phenyl]-N4-(3,4-ethylenedioxypheny)-5-fluoro-2,4-pyrimidinediamine]
10 µM | > 10 µM |  | Oc1cccc(Nc2nc(Nc3ccc(OCC4=NCCCN4)cc3)ncc2F)c1 [R945169, 5-Fluoro-N4-(3-hydroxyphenyl)-N2-[4-(1,4,5,6-tetrahydro-2-pyrimidyl)methyleneoxyphenyl]-2,4-pyrimidinediamine]
1.03 µM | > 10 µM |  | Cn1ncc2cc(Nc3ncc(F)c(Nc4ccc(OC(F)(F)F)c(Cl)c4)n3)ccc21 [R935359, N4-(3-chloro-4-trifluoromethoxyphenyl)-5-fluoro-N2-(1-methylindazoline-5-yl)-2,4-pyrimidinediamine]
6.5 µM | 8.65 µM |  | NCCNC(=O)c1cc2cc(Nc3ncc(F)c(Nc4ccc5oc(C(=O)NCCN)cc5c4)n3)ccc2o1 [R950168, N2,N4-Bis[2-(2-aminoethyleneamoinocarbonyl)-benzofurane-5-yl]-5-fluoro-2,4-pyrimidinediamine]
2.23 µM | > 10 µM |  | Nc1cccc(Nc2nc(Nc3cccc(Nc4ncc(F)c(Nc5cccc(N)c5)n4)c3)ncc2F)c1 [R950137, N4-(3-Aminophenyl)-N2-[[N3-[N4-(3-aminophenyl)]-5-fluoro-2,4-pyrimidinediamine]aminophenyl]-5-fluoro-2,4-pyrimidinediamine]
2.33 µM | > 10 µM |  | O=C(COc1cccc(Nc2ncc(F)c(Nc3cc(Cl)c(O)c(Cl)c3)n2)c1)N1CCNCC1 [R950188, N4-(3,5-Dichloro-4-hydroxyphenyl)-5-fluoro-N2-[3-(N-piperazino)carbonylmethyleneoxyphenyl]-2,4-pyrimidinediamine]
2.06 µM | > 10 µM |  | O=C(CNc1cccc(Nc2ncc(F)c(Nc3cccc(NCCO)c3)n2)c1)NCCN1CCOCC1 [R950239, 5-Fluoro-N4-[3-(2-hydroxyethylamino)phenyl]-N2-[3-(N-morpholinoethyleneamino)carbonylmethyleneaminophenyl]-2,4-pyrimidinediamine]
1.75 µM | > 10 µM |  | CON=C(N)COc1ccc(Nc2ncc(F)c(Nc3ccc(OCC(N)=NOC)cc3)n2)cc1 [R945096, N2,N4-Bis[4-[2-methoxyimino(amino)ethyleneoxy]phenyl]-5-fluoro-2,4-pyrimidinediamine]
1.1 µM | > 10 µM |  | CNC(=O)COc1cccc(Nc2ncc(F)c(Nc3ccc(OC)c(C(=O)NC)c3)n2)c1 [R940306, 5-Fluoro-N2-[3-(methylaminocarbonylmethyleneoxy)phenyl]-N4-(3-methylaminocarbonyl-4-methoxyphenyl)-2,4-pyrimidinediamine]
0.048 µM | > 10 µM |  | CNC(=O)COc1cccc(Nc2ncc(F)c(Nc3ccc4c(c3)NC(=O)C(C)(C)O4)n2)c1 [R940323, N4-[(2,2-Dimethyl-4H-benzo[1,4]oxazin-3-one)-6-yl]-5-fluoro-N2-[3-(methylaminocarbonylmethyleneoxy)phenyl]-2,4-pyrimidinediamine]
2.96 µM | > 10 µM |  | COC(=O)Cn1ncc2ccc(Nc3ncc(F)c(Nc4ccc5cnn(CC(=O)OC)c5c4)n3)cc21 [R935205, N2,N4-Bis[1-(methoxycarbonyl)methyl-indazoline-6-yl]-5-fluoro-2,4-pyrimidinediamine]
1.43 µM | > 10 µM |  | CNC(=O)Cn1ncc2ccc(Nc3ncc(F)c(Nc4ccc5c(c4)OCCO5)n3)cc21 [R935212, N4-(3,4-ethylenedioxyphenyl)-5-fluoro-N2-[1-(N-methylaminocarbonyl)methyl-indazoline-6-yl]-2,4-pyrimidinediamine]
